In patent US20070231288A1, “COSMETIC USE OF D-RIBOSE AND METHOD THEREOF” (LM Cosmetics, priority 2006, published 2007):

How the values were obtained:
[1] = test system: normal human epidermal fibroblasts in culture; assay: Effect of D-ribose on in vitro production of ATP by skin cells under hypoxia; format: cell-based; conditions: 0.05% D-ribose, after 6 hours of severe hypoxia (oxygen <2%), 24 h pre-treatment
Protocol: The inventors measured the effect of D-ribose on the production of ATP by the normal human epidermal fibroblasts in culture, under conditions of hypoxia. The cellules used are flask inoculations of normal human epidermal fibroblasts in DMEM medium with 10% FCS, incubation at 37° C., 5% CO2 and RH>95% up to 80% confluency. On Day 1, a first measurement of the level of ATP is taken on the untreated, unstressed NHDF. Pre-treatment for 24 hours with 0.05% of ribose versus an untreated control condition, 2 series in hexaplicate according to conditions. On Day 2, before the induction of hypoxia: stopping a series in order to measure the ATP level before hypoxia over all conditions (treated and untreated). The cells of the 2nd series were placed in suspension, the culture medium was renewed by DMEM 10% FCS supplemented with Hepes buffer (to maintain the pH at physiological conditions during hypoxia) and with EDTA (to prevent cell agglutination). The cells are placed in a incubator adjusted to 37° C., RH>95% the atmosphere of which has previously been replaced with nitrogen. Incubation for 6 hours under conditions of severe hypoxia (oxygen <2%) in the presence of 0.05% D-ribose versus an untreated control condition. Recovery of the cells and measurement of the quantity of ATP in the treated and untreated cells.

[2] = test system: normal human dermal fibroblasts in culture (NHDF); assay: Effect of D-ribose on in vitro skin cell respiration (BD Oxygen Biosensor System); format: cell-based; conditions: 0.05% D-ribose, after 2 hours of contact
Protocol: The inventors measured the effect of D-ribose on the mitochondrial and cytosolic respiration of normal human dermal fibroblasts in culture (NHDF). The cells used are fibroblasts cultured at 37° C., 5% CO2, in DMEM medium, 10% FCS (foetal calf serum). The NHDF cultured in monolayer are placed in suspension and distributed in the wells of a special plate of the “BD Oxygen Biosensor System” kit. The bottom of the well is constituted by a membrane on which a molecule is grafted the fluorescence of which is inhibited by the oxygen dissolved in the incubation medium. The fluorescence increases in proportion to the oxygen consumed by the cells. 0.05% D-ribose is added in six wells. The intensity of fluorescence is measured in kinetic mode. The rate of respiration is calculated from measurements of the intensity of fluorescence.

SMILES: O=C[C@H](O)[C@H](O)[C@H](O)CO [D-ribose]
- ATP level re-established [1]: 19%
- increase in the cytosolic respiration [2]: 37%
- increase in the mitochondrial respiration [2]: 31%
